Assay results published in patent publication US20200223889A1, “Bicyclic Compounds Capable of Binding to Melanocortin 4 Receptor” (Novo Nordisk A/S, priority 2017, published 2020).
Positions of bridges follow the written chain, without caps; N, C: chain ends. Non-standard residues stand in square brackets, D forms with d. Residues, ends and D or L forms follow the SMILES beside them. Thz = O=C(O)[C@@H]1CSCN1

Assay: In vivo acute food intake model (BioDAQ) in C57BL/6J male mice
Conditions: single subcutaneous dose 1 mg/kg, cumulative food intake
Protocol: The MC4R system is central to appetite regulation and agonists are known inhibit food intake. In order to screen compounds in a relevant in vivo model, efficacy was assessed by determining the effect of the compound on reducing food intake acutely in mice.
All animal protocols were approved by an Institutional Animal Care and Use Committee and Ethical Review Committee of Novo Nordisk. Animals were housed according to Novo Nordisk rodent housing standards, and were given ad libitum access to food and water under controlled lighting (12 h:12 h light/dark cycle; lights off 11:00-23:00), temperature (23±2° C.) and relative humidity (50±20%) conditions. For each acute food intake study C57BL/6J male mice (25-30 grams body weight) were acclimated for two weeks to the appropriate light cycle and to single-housing (one mouse per cage) in cages linked to a BioDAQ automated food intake system (Research Diets Inc., New Brunswick, N.J. USA). The animals were also acclimated to new food (Research Diets 12450B, 10% kcal fat) during this time.
The BioDAQ is a computer automated scientific instrument for Biological Data Acquisition of food intake in rodents and measures food intake from each cage every 15 minutes. A total of 32 animals can be accommodated in the system per study, therefore, animals were randomized into 4 groups of n=8 for each study. […] Animals were fasted ˜4 hr prior to dosing. Vehicle (10 mM phosphate; 140 mM sodium chloride) or compound was dosed at a volume of 10 ml per kg subcutaneously approximately 20 minutes prior to the start of the dark cycle (compound chem no. and dosages are indicated in table 2 below). After dosing, food intake was recorded for approximately 24 hours.
The inhibitory effect of compounds on food intake was generally well-correlated with in vitro binding affinity on the human MC4 receptor and with plasma stability of the compound. Most studies were conducted as dose response studies with vehicle and the compound at 3 doses (0.3, 1 and 3 mg/kg). Some studies were done for the purpose of dose-range finding, while others were done to comparatively assess the effect of 3 compounds at the same dose. Maximal effects on food intake occurred within the first 1-5 hours post-dose. The comparative effect of compounds across studies on food intake was assessed by normalizing measurements as % effect on cumulative food intake after a single subcutaneous dose, relative to vehicle. Results are reported in Table 2 as % effect on food intake at 3 hours post dose.

C[C@@H]1NC(=O)[C@H](CCCCN)NC(=O)[C@@H]2CSSC[C@H](NC(=O)[C@H](Cc3c[nH]c4ccccc34)NC(=O)[C@H](C)NC(=O)[C@@H](CCCCN)NC1=O)C(=O)N1CSC[C@H]1C(=O)N[C@@H](Cc1c[nH]cn1)C(=O)N[C@H](Cc1ccccc1)C(=O)N[C@@H](Cc1c[nH]cn1)C(=O)N[C@@H](Cc1c[nH]c3ccccc13)C(=O)N2 [Chem. 114, c[c[Cys-THAZ-His-D-Phe-His-Trp- Cys]-Lys-Ala-D-Lys-Ala-Trp]] (cyclo(AWC[Thz]H[dF]HWCKA[dK]); disulfide 3-9)
% Effect on food intake at 3 hours post dose, relative to vehicle: −64 ± 6%
